In US5041567A, “Antibacterial monic acid derivatives” (Beecham Group plc, priority 1982, dated 1991):
Like-named read-outs stand apart in the source and are kept apart here.

Tests used:
[1] = tested on: M. hyosynoviae ATCC 25591; test: MIC against mycoplasma in vitro; format: cell-based; conditions: 144 h
[2] = tested on: M. suipneumoniae HK(2); test: MIC against mycoplasma in vitro; format: cell-based; conditions: Mesomycoplasma hyopneumoniae, 144 h; M. suipneumoniae HK(2); 6 days, 37° C.; read-out: MIC
[3] = tested on: M. suipneumoniae ATCC 25095; test: MIC against mycoplasma in vitro; format: cell-based; conditions: Mesomycoplasma hyopneumoniae, ATCC25095, 144 h; M. suipneumoniae ATCC 25095; 6 days, 37° C.; read-out: MIC
[4] = tested on: S. typhimurium S18; test: MIC against veterinary bacteria in vitro; conditions: Salmonella enterica, TYPHIMURIUM, 18 h
Description: (§1) The activity of the compounds of the Examples against various veterinarily important bacteria, was assayed in vitro using two-fold serial dilutions in Diagnostic Sensitivity Test Agar inoculated with 10^4 organisms.

[5] = tested on: P. mirabilis 889; test: MIC against human bacteria in vitro; format: cell-based
[6] = tested on: Staph. aureus Oxford; test: MIC against human bacteria in vitro; format: cell-based; conditions: Staphylococcus aureus; Staph. aureus Oxford; 5% chocolated horse blood agar, 18 hours; read-out: MIC
[7] = tested on: K. aerogenes A; test: MIC against human bacteria in vitro; format: cell-based; conditions: Klebsiella aerogenes; K. aerogenes A; 5% chocolated horse blood agar, 18 hours; read-out: MIC
[8] = tested on: Staph. aureus Russell; test: MIC against human bacteria in vitro; format: cell-based; conditions: Staphylococcus aureus; Staph. aureus Russell; 5% chocolated horse blood agar, 18 hours; read-out: MIC
[9] = tested on: M. suipneumoniae JF 435; test: MIC against mycoplasma in vitro; format: cell-based; conditions: Mesomycoplasma hyopneumoniae, JF435, 144 h; M. suipneumoniae JF 435; 6 days, 37° C.; read-out: MIC
[10] = tested on: E. coli ESS; test: MIC against human bacteria in vitro; format: cell-based; conditions: Escherichia coli
[11] = tested on: Staph. aureus 152 (pen. sens); test: MIC against veterinary bacteria in vitro; conditions: Staphylococcus aureus, 18 h
Description: as §1

[12] = tested on: M. suipneumoniae TAM 6N; test: MIC against mycoplasma in vitro; format: cell-based; conditions: Mesomycoplasma hyopneumoniae, TAM6N, 144 h; M. suipneumoniae TAM 6N; 6 days, 37° C.; read-out: MIC
[13] = tested on: Strep. spp. 64/848-C; test: MIC against human bacteria in vitro; format: cell-based; conditions: Strep. spp. 64/848-C; 5% chocolated horse blood agar, 18 hours; read-out: MIC
[14] = tested on: M. suipneumoniae LABER; test: MIC against mycoplasma in vitro; format: cell-based; conditions: Mesomycoplasma hyopneumoniae, 144 h; M. suipneumoniae LABER; 6 days, 37° C.; read-out: MIC
[15] = tested on: Past. multocida PA2; test: MIC against veterinary bacteria in vitro; conditions: Pasteurella multocida, PA2, 18 h
Description: as §1

[16] = tested on: Staph. aureus W2827; test: MIC against human bacteria in vitro; format: cell-based; conditions: Staphylococcus aureus; Staph. aureus W2827; 5% chocolated horse blood agar, 18 hours; read-out: MIC
[17] = tested on: E. coli E1; test: MIC against veterinary bacteria in vitro; conditions: Escherichia coli, E1, 18 h
Description: as §1

[18] = tested on: Strep. faecalis I; test: MIC against human bacteria in vitro; format: cell-based; conditions: Enterococcus faecalis; Strep. faecalis I; 5% chocolated horse blood agar, 18 hours; read-out: MIC
[19] = tested on: M. pneumoniae ATCC 15492; test: MIC against mycoplasma in vitro; format: cell-based; conditions: Mycoplasmoides pneumoniae, ATCC15492, 144 h; M. pneumoniae ATCC 15492; 6 days, 37° C.; read-out: MIC
[20] = tested on: Sarcina lutea 8340; test: MIC against human bacteria in vitro; format: cell-based; conditions: Micrococcus luteus; Sarcina lutea 8340; 5% chocolated horse blood agar, 18 hours; read-out: MIC
[21] = tested on: Bord. bronchiseptica B08; test: MIC against veterinary bacteria in vitro; conditions: Bordetella bronchiseptica, B08, 18 h
Description: as §1

[22] = tested on: Strep. uberis SPU1; test: MIC against veterinary bacteria in vitro; conditions: Streptococcus uberis, SPU1, 18 h
Description: as §1

[23] = tested on: Strep. pyogenes R80/421-A; test: MIC against human bacteria in vitro; format: cell-based; conditions: Streptococcus pyogenes; Strep. pyogenes R80/421-A; 5% chocolated horse blood agar, 18 hours; read-out: MIC
[24] = tested on: M. hyorhinis ATCC 23234; test: MIC against mycoplasma in vitro; format: cell-based; conditions: Mesomycoplasma hyorhinis, ATCC23234, 144 h; M. hyorhinis ATCC 23234; 6 days, 37° C.; read-out: MIC
[25] = tested on: Staph. aureus B4 (pen. resistant); test: MIC against veterinary bacteria in vitro; conditions: Staphylococcus aureus, 18 h
Description: as §1

[26] = tested on: Bacillus subtilis 6633; test: MIC against human bacteria in vitro; format: cell-based; conditions: Bacillus subtilis 6633; 5% chocolated horse blood agar, 18 hours; read-out: MIC
[27] = tested on: Pasteurella multocida 1633; test: MIC against human bacteria in vitro; format: cell-based; conditions: Pasteurella multocida 1633; 5% chocolated horse blood agar, 18 hours; read-out: MIC
[28] = tested on: M. suipneumoniae J2206/183^b; test: MIC against mycoplasma in vitro; format: cell-based; conditions: Mesomycoplasma hyopneumoniae, 144 h; M. suipneumoniae J2206/183^b; 6 days, 37° C.; read-out: MIC
[29] = tested on: M. hyorhinis ATCC 25021; test: MIC against mycoplasma in vitro; format: cell-based; conditions: Mesomycoplasma hyorhinis, ATCC25021, 144 h; M. hyorhinis ATCC 25021; 6 days, 37° C.; read-out: MIC
[30] = tested on: M. dispar NCTC 10125; test: MIC against mycoplasma in vitro; format: cell-based; conditions: 144 h
[31] = tested on: Strep. suis (group D) SPS11; test: MIC against veterinary bacteria in vitro; conditions: Streptococcus suis, 18 h
Description: as §1

[32] = tested on: M. suipneumoniae NCTC 10110; test: MIC against mycoplasma in vitro; format: cell-based; conditions: Mesomycoplasma hyopneumoniae, NCTC10110, 144 h; M. suipneumoniae NCTC 10110; 6 days, 37° C.; read-out: MIC
[33] = tested on: M. suipneumoniae MS 16; test: MIC against mycoplasma in vitro; format: cell-based; conditions: Mesomycoplasma hyopneumoniae, MS16, 144 h; M. suipneumoniae MS 16; 6 days, 37° C.; read-out: MIC
[34] = tested on: Neisseria catarrhalis 1502; test: MIC against human bacteria in vitro; format: cell-based; conditions: Neisseria catarrhalis 1502; 5% chocolated horse blood agar, 18 hours; read-out: MIC
[35] = tested on: Strep. pneumoniae CN33; test: MIC against human bacteria in vitro; format: cell-based; conditions: Streptococcus pneumoniae, CN33, 18 h
[36] = M. hyosynoviae ATCC 25591, 6 days, 37° C., read-out: MIC
[37] = M. dispar NCTC 10125, 6 days, 37° C., read-out: MIC

Measured: MIC

C/C(=C\c1ncc(Cc2ccccc2)o1)C[C@@H]1OC[C@H](C[C@@H]2O[C@H]2[C@@H](C)[C@H](C)O)[C@@H](O)[C@H]1O [Example 27, 5-Benzyl-2-(1-normon-2-yl)oxazole A]
10 µg/mL: [2] | [9] | [11] | [12] | [19] | [24] | [28] | [32]
16 µg/mL: [8] | [10]; E. coli ESS, 5% chocolated horse blood agar, 18 hours, read-out: MIC | [13] | [16]
2.5 µg/mL: [1] | [25] | [30]
5 µg/mL: [3] | [14] | [15] | [29] | [33]
1.25 µg/mL: [22]
4 µg/mL: [23] | [26]
> 80 µg/mL: [4] | [17] | [21] | [31]
32 µg/mL: [27]
8 µg/mL: [6]
> 64 µg/mL: [5]; Proteus mirabilis, P. mirabilis 889, 5% chocolated horse blood agar, 18 hours, read-out: MIC | [7] | [18] | [20]

C/C(=C\c1nc(C)c(C)o1)C[C@@H]1OC[C@H](C[C@@H]2O[C@H]2[C@@H](C)[C@H](C)O)[C@@H](O)[C@H]1O [Example 39, 4,5-Dimethyl-2-(1-normon-2-yl)oxazole A]
25 µg/mL: [34]
> 10 µg/mL: [1]; [36] | [2] | [3] | [9] | [12] | [14] | [19] | [24] | [28] | [29] | [30]; [37] | [32] | [33]
50 µg/mL: [27]
100 µg/mL: [6] | [35]
> 100 µg/mL: [5]; Proteus mirabilis, 889, 18 h | [7] | [8] | [10]; 18 h | [16] | [18] | [20] | [26]
40 µg/mL: [15]
> 80 µg/mL: [4] | [11] | [17] | [21] | [22] | [25] | [31]

C/C(=C\c1nc(C)c(-c2ccccc2)o1)C[C@@H]1OC[C@H](C[C@@H]2O[C@H]2[C@@H](C)[C@H](C)O)[C@@H](O)[C@H]1O [Example 40, 4-Methyl-2-(1-normon-2-yl)-5-phenyloxazole A]
100 µg/mL: [6] | [8] | [10]; 18 h | [26] | [27]
40 µg/mL: [22]
80 µg/mL: [11] | [15] | [25]
> 10 µg/mL: [1]; [36] | [2] | [3] | [9] | [12] | [14] | [19] | [24] | [28] | [29] | [30]; [37] | [32] | [33]
> 100 µg/mL: [5]; Proteus mirabilis, 889, 18 h | [7] | [16] | [18] | [20] | [35]
> 80 µg/mL: [4] | [17] | [21] | [31]
50 µg/mL: [34]
